Columns and labels:
platelets = test: Platelet stimulation and release of freeMitos, mitoMPs and MPs (hs-FCM); format: cell-based, human; conditions: platelets stimulated 4 hours at room temperature, vs supernatant from resting platelets, n=4
Source text: (§1) A forward scatter (FSC) coupled to a photomultiplier tube (PMT) “small particles option” (FSC-PMT) (rather than the usual diode) with a 488-nm solid state, 100-mW output blue laser (rather than the conventional 20 mW), a 633-nm HeNe, 20-mW output red laser, and a 405-nm solid state diode, 50-mW output violet laser were mounted on the BD FACS Canto II Special Order Research Product used for all our studies (BD Biosciences). The chosen parameters were optimal to detect particles from 100 to 3 500 nm simultaneously on the FSC-PMT.
(§2) Platelets were labeled with MitoTracker Deep Red™ and PKH67 Green Fluorescent Cell Linker as described above. Platelets were washed and then were left nonactivated or activated using heat-aggregated immunoglobulin (Ig)G (HA-IgG), 1 mg/mL; thrombin, 0.5 U/mL; collagen, 5 μg/mL; for 4 hours at room temperature. Platelets ([…]) were then diluted into […] phosphate-buffered saline (PBS) and analyzed by flow cytometry. For extracellular mitochondria release experiments, platelets were treated with cytochalasin B ([…]; Sigma-Aldrich), cytochalasin D ([…]; Sigma-Aldrich), cytochalasin E ([…]; Cayman Chemical), latrunculin A ([…]; Cayman Chemical), or nocodazole ([…]; Sigma-Aldrich). To process the data quantitatively, 100 000 polystyrene microspheres ([…] diameter; Polysciences) were added to each tube, and 1000 microspheres were acquired.

human neutrophils [1] = test: NET quantification; format: cell-based
Method: Activated human neutrophils (5×10^6 cells/ml) were incubated in the presence of labeled mitochondria (5×10^5 mitochondria/ml, MitoTracker® Deep Red, 100 nm) and sPLA2-IIA (0.1 μg/ml) or diluent (PBS) for 2 h at 37° C. Cells were then fixed with 2% PFA and DNA staining was performed with Hoestch 33342 (1 μg/ml, Invitrogen). Cells were cytospinned on a slide at 500 RPM for 3 min. NET formation (%) was determined by the following equation: (NETs/PMN counted)*100. Preliminary experiments confirmed that mtDNA is readily distinguished from neutrophils NETs.

[2] = tested on: thrombin-activated platelets; test: Extracellular mitochondria release from thrombin-activated platelets with cytoskeleton inhibitors (hs-FCM); format: cell-based, human; conditions: addition of actin or tubulin polymerization inhibitors, n=4
Source text: as §1, §2

human neutrophils [3] = test: Stimulation of neutrophils for leukotriene generation (5-LO products, HPLC); format: cell-based; conditions: human neutrophils with extracellular mitochondria and sPLA2-IIA; pyrrophenone 100 nM
Method: Human neutrophils were primed and stimulated for leukotriene biosynthesis as previously described (Cloutier et al. 2013, Flamand et al. 2006). To evaluate sPLA2-IIA mediated release of arachidonic acid, cPLA2α inhibitor pyrrophenone (100 nM) was added 5 min before stimulation. Stimulation was initiated by the addition of 5 μl of pre-treated mitochondria, or control, to prime neutrophils. The reaction was stopped by the addition of 500 μl of cold MeOH:CH3CN (1:1) containing 12.5 ng of prostaglandin B2 as internal standard. Samples were then processed and analyzed by reversed-phase high performance liquid chromatography using on-line extraction as previously described (Borgeat et al. 1990).

mitochondria [4] = test: Mitochondrial DNA release after incubation with sPLA2-IIA (Sytox Green); format: biochemical, mouse; conditions: 0.2 mg/mL, 30 minutes at 37° C., n=6
Method: Mitochondria were seeded at 5×10^8 mitochondria/mL (Tyrode Buffer, pH 7.4, +5 mM CaCl2) in a flat bottom well plate (Costar, Corning). Human recombinant sPLA2-IIA (5 μg/ml) or diluent (PBS) was added and samples were then incubated for 30 min at 37° C. Nucleic acid stain Sytox® Green (2.5 μM, Invitrogen) was added to the mix and incubated for 10 min at room temperature. Fluorescence was obtained with a Tecan apparatus. To calculate the percentage of mitochondrial DNA released in the milieu, Triton X-100 (0.1% PBS) lysis of an equivalent amount of mitochondria (5×10^8 mitochondria/ml) was performed, to determine the total amount of mitochondrial DNA present per well.

mitochondria [5] = test: sPLA2-IIA binding to mitochondria (flow cytometry, anti-TOM22 co-elution and immunoblot); design: species or system mouse; conditions: 30 min on ice, 5 mM CaCl2
Method: Mitochondria (10^6) from mouse liver were labeled with 100 nM of MitoTracker® Deep Red and incubated with 10 ng of sPLA2-IIA Alexa Fluor 488 (final volume 10 μl) in HBSS with 5 mM of CaCl2 for 30 min on ice. Samples were diluted and the presence of sPLA2-IIA Alexa Fluor 488 on fluorescent mitochondria was analyzed by flow cytometry.
Interaction between mitochondria and sPLA2-IIA was also assessed by immunolabeling and co-elution. Unstained mouse liver mitochondria (10^7) in HBSS with 5 mM CaCl2 were incubated with 250 ng of sPLA2-IIA (final volume 100 μl) for 30 min on ice. Anti-TOM22 microbeads labeling was then performed as described above and processed on a magnet for mitochondria isolation. Mitochondria were then pelleted and lysed in 1× lysis buffer. Samples were electrophoresed, transferred onto membranes and incubated in 0.2% milk/TBS-Tween solution containing rabbit anti-sPLA2-IIA antibody (1/1000, Cayman Chemical) for 48 h at 4° C. The membrane was washed, treated with Peroxidase-AffiniPure anti-rabbit-IgG (Jackson ImmunoResearch) and reactive proteins were visualized by chemiluminescence (Perkin Elmer).

mitochondrial membranes = test: Mass spectrometry of lysophospholipids and fatty acids released from mitochondrial membranes by sPLA2-IIA; format: biochemical, mouse; conditions: 0.1 and 1 μg/ml sPLA2-IIA, 37° C., 0.5 and 6 h
Method: Mitochondria were incubated in the presence of 0.1 μg/ml and 1 μg/ml of human recombinant sPLA2-IIA at 37° C. for 0.5 and 6 h. Mitochondria were also incubated in the absence of sPLA2-IIA to determine the content of basal free fatty acid. Following incubation, the reaction was stopped with the addition of 20 mM of EGTA. Lysophospholipid analysis by mass spectrometry was carried out as described (Bollinger et al. 2010). Samples of sPLA2-IIA-treated mitochondria (200 μl) was mixed with 800 μl of chloroform/methanol (2/1) followed by the addition of 15 μl of internal standard mixture (Bollinger et al. 2010 B). Samples were extracted as described and analyzed by combined liquid chromatography/tandem mass spectrometry (Bollinger et al. 2010). Fatty acids were analyzed by conversion to their AMPP amide derivatives and then analyzed by combined liquid chromatography/tandem mass spectrometry.

[6] = tested on: freshly isolated human neutrophil; test: Scanning electron microscopy of human neutrophils with mitochondria and sPLA2-IIA; format: cell-based; conditions: mitochondria with human neutrophils, 30-minute incubation with sPLA2-IIA; n=3
Method: (§3) Samples were fixed with 2.5% glutaraldehyde for at least 24 h then processed for standard dehydration. Briefly, samples were first washed (3×10 min) with sodium cacodylate buffer (0.1 M, pH 7.3) then fixed with osmium tetroxide (1% in sodium cacodylate buffer) for 90 min. Samples were washed again (3×10 min) in sodium cacodylate buffer and subsequently processed for alcohol dehydration steps (50, 70, 95 and 100% EtOH, 10 min each steps). Samples were then dipped in 100% EtOH for 40 and 10 min, and air-dried overnight. Samples were then coated with palladium and observed with a JEOL 6360LV scanning electron microscope (Tokyo, Japan).

mitochondria [7] = test: Scanning electron microscopy of mitochondria incubated with sPLA2-IIA; design: species or system mouse; conditions: scanning electron micrographs
Method: as §3

C57BL/6N mice = test: Air pouch model, cytokine production; format: in vivo, mouse; conditions: injected into the air pouch of C57BL/6N mice, 4 hours; n=7
Method: Briefly, sterile air was subcutaneous injected on days 0 and 3. Tumor necrosis factor-α (50 ng) was injected into the pouch on day 6. On day 7, mitochondrial membrane hydrolysis products ([…] of 5×10^8 mitochondria treated with sPLA2-IIA), diluent (PBS), sPLA2-IIA, or mitochondria alone were injected in the air pouch. After 4 hours, the air pouch was washed with 1.2 mL PBS. Cytokines were quantified using the BD Cytometric Bead Array System (CBA) (BD Biosciences) by flow cytometry on a BD FACS Canto II and analyzed using FCAP Array Software v3.0.

## CCCCCCCCCCCCCC(=O)O[C@@H]1[C@@H](C)[C@@]2(O)[C@@H](C=C(CO)C[C@]3(O)C(=O)C(C)=C[C@@H]23)[C@@H]2C(C)(C)[C@]12OC(C)=O [PMA, phorbol 12-myristate 13-acetate]
platelets
  release of extracellular freeMitos, mitoMPs and MPs: trigger the release

## CCCCC/C=C\C/C=C\C/C=C\C/C=C\CCCC(=O)O [arachidonic acid]
Human neutrophils [1]; human neutrophils
  inducing NETosis (hydrolytic products derived from sPLA2-IIA activity): highly potent

## C=C1[C@@H](C)[C@H]2[C@H](Cc3ccccc3)NC(=O)[C@]23OC(=O)/C=C/[C@H](O)CCC[C@@H](C)C/C=C/[C@H]3[C@@H]1O [cytochalasin B]
[2]
  Mitochondrial release (freeMito, mitoMPs, MPs) from thrombin-activated platelets: significantly reduced

## C=C1[C@@H](C)[C@H]2[C@H](Cc3ccccc3)NC(=O)[C@]23[C@H](OC(C)=O)/C=C/[C@@](C)(O)C(=O)[C@@H](C)C/C=C/[C@H]3[C@@H]1O [cytochalasin D]
[2]
  Mitochondrial release (freeMito, mitoMPs, MPs) from thrombin-activated platelets: significantly reduced

## C[C@H]1C/C=C/[C@H]2[C@@H]3O[C@]3(C)[C@@H](C)[C@H]3[C@H](Cc4ccccc4)NC(=O)[C@]32OC(=O)O/C=C/[C@@](C)(O)C1=O [cytochalasin E]
[2]
  Mitochondrial release (freeMito, mitoMPs, MPs) from thrombin-activated platelets: significantly reduced

## C/C1=C/C(=O)O[C@@H]2C[C@@H](CC[C@H](C)/C=C\C=C\CC1)O[C@@](O)([C@@H]1CSC(=O)N1)C2 [latrunculin A]
[2]
  Mitochondrial release (freeMito, mitoMPs, MPs) from thrombin-activated platelets: significantly reduced

## O=C1NC(=O)/C(=C/c2ccc(C(=O)NC[C@@H]3C[C@@H](SC(c4ccccc4)(c4ccccc4)c4ccccc4)CN3C(=O)c3ccccc3C(=O)c3ccc(F)cc3F)cc2)S1 [pyrrophenone]
Human neutrophils [3]
  LTB4 production (5-LO products) by neutrophils: takes place even in presence

## collagen
platelets
  release of extracellular freeMitos, mitoMPs and MPs: trigger the release

## thrombin
platelets
  release of extracellular freeMitos, mitoMPs and MPs: trigger the release

B1: sPLA2-IIA: human recombinant secreted phospholipase A2 group IIA (protein, UniProt P14555 21-144, looked up)
Phospholipase A2, membrane …: NLVNFHRMIKLTTGKEAALSYGFYGCHCGVGGRGSPKDATDRCCVTHDCCYKRLEKRGCGTKFLSYKFSNSGSRITCAKQDSCRSQLCECDKAAATCFARNKTTYNKKYQYYSNKHCRGSTPRC
Mitochondria [4]
  mtDNA extrusion: amplified
Mitochondria [5]
  binding of sPLA2-IIA to mitochondria: binds mitochondria
Mitochondrial membranes
  release of lysophospholipids and free fatty acids from mitochondria: release of various lysophospholipids and free fatty acids
Human neutrophils [3]
  LTB4 production (5-LO products) by neutrophils: copious amounts
Human neutrophils [1]; human neutrophils with mitochondria, sPLA2-IIA 0.1 μg/ml, 2 h at 37° C.
  NET formation by mitochondria: significantly enhances
[6]
  neutrophil structural change: 29.2±2.11%
Mitochondria [7]
  mitochondrial structural integrity: severely affects mitochondrial structural integrity
C57BL/6N mice
  production of IL-1b and IL-6: modest cytokine production
